Measured values published in US12616753B2, “HSP70 inhibitors and methods of using same” (THE WISTAR INSTITUTE, priority 2020, dated 2026).

Tests used:
MC38 tumors = assay: Syngeneic model of MC38 tumors in C57Bl/6 mice; type: in vivo, mouse; conditions: 10 mg/kg every 48 hours
Description: (§1) FIGS. 5A-5F show AP-4-139B is efficacious against CRC in an immunocompetent model, and causes immune cell recruitment. FIGS. 5A-5B: Mouse CRC cell lines, MC38 (FIG. 5A) and CT26 (FIG. 5B), were plated at a density of 1,000 cells per well in 96-well plates. The next day, cells were treated with the indicated inhibitors for 72 hours. Cells were then subjected to the Alamar Blue cell viability assays. Shown are representative IC50 values of an average of six technical replicates and two biological replicates. FIG. 5C: Mouse CRC cell lines MC38 and CT26 were treated with 10 μM AP-4-139B for 24 or 48 hours and immunoblotted for HSP70, p53, AKT, Cleaved Lamin A (CLA), Cleaved Caspase 3, MRPS14, and GAPDH (loading control). The doublet detected for HSP70 is seen in other murine cell lines, and may represent a degradation product or post-translational modification. FIG. 5D: 1×10^6 MC38 cells were injected subcutaneously into the right flank of 6-8 week old male C57Bl/6 mice. Once tumors reached an approximate volume of 50 mm^3, mice were separated randomly into two groups: vehicle vs. AP-4-139B. Mice were treated with 10 mg/kg AP-4-139B every 48 hours. All mice were euthanized 20 days after the start of treatment. Tumor volumes were recorded using digital calipers and using the formula v=length×width^2×0.52. *** p<0.001. n=15 mice per group.
FIG. 5E: Immunohistochemistry (IHC) analysis of MC38 tumors treated with AP-4-139B. Shown are representative images (4-6 random fields of view per condition from four independent tumors) of CD8^+ T cells and Granzyme B (marker for activated immune cells). Respective IgG antibody was used as the negative control. Scale bars=100 μm. FIG. 5F: Quantification of FIG. 5E * p<0.05; ** p<0.01.
FIG. 9A: Body weights of mice injected with HT-29 tumor xenografts. Weights were measured at the start of the treatment to determine mouse toxicity. n.s. not significant, n=15 mice per group. FIG. 9B: Immunohistochemistry (IHC) analysis of MC38 tumors treated with AP-4-139B. Shown are representative images (4-6 random fields of view per condition from four independent tumors) of CD4^+ T cells. Respective IgG antibody was used as the negative control. Scale bars=100 μm. FIG. 9C: Quantification of FIG. 9B.
All studies were carried out in accordance with the recommendations in the Guide for the Care and Use of Laboratory Animals of the National Institutes of Health (NIH). All protocols were approved by The Wistar Institute Institutional Animal Care and Use Committee (IACUC). […] Tumor volumes were measured using digital calipers and tumor volume was calculated using the formula: volume=(length×width^2)×0.52. All mice were monitored daily for signs of pain or distress.

mutant p53 and MRPS14 = assay: Western blot in mouse CRC cell lines; type: cell-based; conditions: 10 μM, 24 or 48 hours
Description: as §1

WM983B tumor xenografts = assay: WM983B melanoma xenograft in NSG mice; type: in vivo, mouse; conditions: 12.5 mg/kg i.p. twice per week
Description: WM983B tumor xenografts were established in NSG mice. […] Tumors were collected at the end of the experiment and assessed for the level of the client protein MRPS14.
FIG. 18 comprises a series of images illustrating IHC of WM983B treated tumors using IgG negative control or antisera to MRPS14t.
AP-4-139B was tested as a single agent in a WM983B melanoma xenograph in mice. WM983B tumor xenografts were established in NSG mice. […] Tumors were collected at the end of the experiment and assessed for the level of the client protein MRPS14.

c1ccc(-c2cn3nc(CCCCCC[P+](c4ccccc4)(c4ccccc4)c4ccccc4)sc3n2)cc1 [AP-4-139B, Triphenyl(6-(6-phenylimidazo[2,1-b][1,3,4]thiadiazol-2-yl)hexyl)phosphonium bromide]
CD4+ T cells in tumors (IHC) (MC38 tumors): increase in CD4+ T cells | infiltrating CD8+ T cells in tumors (IHC) (MC38 tumors): large percentage of infiltrating CD8^+ T cells | weight loss of mice during treatment (MC38 tumors): no evidence of weight loss | efficacy in syngeneic MC38 tumors (MC38 tumors; p<0.001): significant efficacy as a single agent | levels of mutant p53 and MRPS14 in MC38 cells (mutant p53 and MRPS14): decreased levels | level of client protein MRPS14 in tumors (IHC) (WM983B tumor xenografts): lose mitochondrial protein MPS14 | tumor growth, WM983B xenograft (WM983B tumor xenografts): inhibit tumor growth
